US7569724B2, “Carbamic acid compounds comprising an amide linkage as HDAC inhibitors” (Topotarget UK Limited, priority 2000, dated 2009)
Where two headings read alike, the source gives them in different places.

Legend:
HDAC (HeLa cell extract) = experiment: Primary assay: deacetylase activity, HeLa cell extract as source of HDAC; format: biochemical, human; settings: HeLa cell extract
Procedure, shortened: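 Crude HeLa extract (freeze-thaw in 60 mM TrisCl pH 8.0, 450 mM NaCl, 30% glycerol) was incubated 1 h at 37° C with a [³H]acetyl-labelled histone H4 N-terminal peptide in 20 mM Tris pH 7.4, 10% glycerol.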

human HDAC2 = target: T1, human HDAC2 (Homo sapiens, UniProt Q92769); experiment: Primary assay: deacetylase activity, recombinantly produced HDAC2; format: biochemical; settings: for IC50: recombinant HDAC2, read-out: HDAC Inhibition (IC50 unless otherwise specified) HDAC2
T1 construct: Full length human HDAC2 was subcloned; Flag (C); His6 (from pAcHLT-A vector; purified on Ni-NTA) (N); made in house; host or cells: SF9 insect cells (baculovirus)
From the text: (§1) Briefly, this assay relies on the release of radioactive acetate from a radioactively labelled histone fragment by the action of HDAC enzyme. Test compounds, which inhibit HDAC, reduce the yield of radioactive acetate. Signal (e.g., scintillation counts) measured in the presence and absence of a test compound provide an indication of that compound's ability to inhibit HDAC activity. Decreased activity indicates increased inhibition by the test compound.
(§2) The histone fragment was an N-terminal sequence from histone H4, and it was labelled with radioactively labelled acetyl groups using tritiated acetylcoenzyme A (coA) in conjunction with an enzyme which is the histone acetyltransferase domain of the transcriptional coactivator p300. […] The acetylated peptide was then separated from free acetyl coA by size exclusion chromatography on Sephadex G-15 (Sigma G-15-120), using distilled H2O as the mobile phase.
(§3) After purification of the radiolabelled histone fragment, it was incubated with a source of HDAC (e.g., an extract of HeLa cells (a rich source of HDAC), recombinantly produced HDAC1 or HDAC2) and any released acetate was extracted into an organic phase and quantitatively determined using scintillation counting. By including a test compound with the source of HDAC, that compound's ability to inhibit the HDAC was determined.
(§4) Amplification of recombinant viruses was performed according to the Pharmingen Instruction Manual.
(§5) For protein production, 2×10^7 cells were infected with the appropriate recombinant virus for 3 days. Cells were then harvested and spun at 3,000 rpm for 5 minutes. They were then washed twice in PBS and resuspended in 2 pellet volumes of lysis buffer (25 mM HEPES pH 7.9, 0.1 mM EDTA, 400 mM KCl, 10% glycerol, 0.1% NP-40, 1 mM AEBSF). Resuspended cells were frozen on dry ice and thawed at 37° C. 3 times and centrifuged for 10 minutes at 14,000 rpm. […] Incubation was carried out at 4° C. for 1 hour on a rotating wheel. The slurry was then centrifuged at 500 g for 5 minutes. Beads were washed twice in 1 ml of wash buffer (25 mM HEPES pH7.9, 0.1 mM EDTA, 150 mM KCl, 10% glycerol, 0.1% NP-40, 1 mM AEBSF). Protein was eluted 3 times in 300 μl elution buffer (25 mM HEPES pH 7.9, 0.1 mM EDTA, 250 mM KCl, 10% glycerol, 0.1% NP-40, 1 mM AEBSF) containing increasing concentrations of imidazole: 0.2 M, 0.5 M and 1 M. Each elution was performed for 5 minutes at room temperature. Eluted protein was kept in 50% glycerol at −70° C.
(§6) A source of HDAC (e.g., 2 μL of crude HeLa extract, 5 μL of HDAC1 or HDAC2; in elution buffer, as above) was incubated with 3 μL of radioactively labelled peptide along with appropriate dilutions of candidate compounds (1.5 μL) in a total volume of 150 μL of buffer (20 mM Tris pH 7.4, 10% glycerol). The reaction was carried out at 37° C. for one hour, after which the reaction was stopped by adding 20 μL of 1 M HCl/0.4 M sodium acetate. […] Radioactivity was measured using a Tri-Carb 2100TR Liquid Scintillation Analyzer (Packard).
(§7) Percent activity (% activity) for each test compound was calculated as: % activity={(S^C−B)/(S^o−B)}×100 wherein S^C denotes signal measured in the presence of enzyme and the compound being tested, S^o denotes signal measured in the presence of enzyme but in the absence of the compound being tested, and B denotes the background signal measured in the absence of both enzyme and compound being tested.

human HDAC1 = target: T2, human HDAC1 (Homo sapiens, UniProt Q13547); experiment: Primary assay: deacetylase activity, recombinantly produced HDAC1; format: biochemical; settings: recombinant HDAC1; read-out: HDAC Inhibition (IC50 unless otherwise specified) HDAC1
T2 construct: Full length human HDAC1 was cloned by PCR; Flag (C); His6 (from pAcHLT vector; purified on Ni-NTA) (N); made in house; host or cells: SF9 insect cells (baculovirus)
From the text: as §1, §2, §3
Full length human HDAC1 was cloned by PCR using a λgt11 Jurkat cDNA library (Clontech-HL5012b). The amplified fragment was inserted into the EcoRI-Sall sites of pFlag-CTC vector (Sigma-E5394), in frame with the Flag tag. A second PCR was carried out in order to amplify a fragment containing the HDAC1 sequence fused to the Flag tag.
as §4, §5, §6, §7

HeLa cells = experiment: Secondary assay: cell proliferation WST-1, HeLa; format: cell-based; settings: Homo sapiens, 48 h, read-out: Cell Proliferation Inhibition WST-1 (IC50 unless otherwise specified) HeLa
Procedure, shortened: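 Absorbance at 450 nm (reference 690 nm); % activity vs untreated after blank subtraction, IC50 fitted with top 100 and bottom 0.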

[1] = tested on: K11 HPV E7 transformed human keratinocyte line; experiment: Secondary assay: cell proliferation WST-1, K11; format: cell-based; settings: Homo sapiens, Keratinocyte, 48 h, read-out: Cell Proliferation Inhibition WST-1 (IC50 unless otherwise specified) K11
Protocol: (§8) Compounds with HDAC inhibition activity, as determined using the primary assay, were subsequently evaluated using secondary cell-based assays. The following cell lines were used:
K11—HPV E7 transformed human keratinocyte line provided by Pidder Jansen-Duerr, Institut für Biomedizinische Alternsforschung, Innsbruck, Austria.
(§9) Cells were plated in 96-well plates at 3-10×10^3 cells/well in 100 μL of culture medium. The following day, different concentrations of candidate compounds were added and the cells incubated at 37° C. for 48 h. Subsequently, 10 μL/well of WST-1 reagent was added and the cells reincubated for 1 hour. After the incubation time, absorbance was measured.
(§10) WST-1 is a tetrazolium salt which is cleaved to formazan dye by cellular enzymes. An expansion in the number of viable cells results in an increase in the overall activity of mitochondrial dehydrogenases in the sample. This augmentation in the enzyme activity leads to an increase in the amount of formazan dye formed, which directly correlates to the number of metabolically active cells in the culture. The formazan dye produced is quantified by a scanning multiwell spectrophotometer by measuring the absorbance of the dye solution at 450 nm wavelength (reference wavelength 690 nm).
(§11) Percent activity (% activity) in reducing the number of viable cells was calculated for each test compound as: % activity={(S^C−B)/(S^o−B)}×100 wherein S^C denotes signal measured in the presence of the compound being tested, S^o denotes signal measured in the absence of the compound being tested, and B denotes the background signal measured in blank wells containing medium only.
(§12) IC50 values were calculated using the software package Prism 3.0 (GraphPad software Inc., San Diego, Calif.), setting top value at 100 and bottom value at 0.

JURKAT human T-cell line = experiment: Secondary assay: cell proliferation WST-1, Jurkat; format: cell-based; settings: Homo sapiens, 48 h, read-out: Cell Proliferation Inhibition WST-1 (IC50 unless otherwise specified) Jurkat
Protocol: as §8
JURKAT—Human T-cell line (ATCC no. TIB-152).
as §9, §10, §11, §12

[2] = read-out: HDAC Inhibition (IC50 unless otherwise specified) HeLa

T1 sequence (Q92769 whole entry): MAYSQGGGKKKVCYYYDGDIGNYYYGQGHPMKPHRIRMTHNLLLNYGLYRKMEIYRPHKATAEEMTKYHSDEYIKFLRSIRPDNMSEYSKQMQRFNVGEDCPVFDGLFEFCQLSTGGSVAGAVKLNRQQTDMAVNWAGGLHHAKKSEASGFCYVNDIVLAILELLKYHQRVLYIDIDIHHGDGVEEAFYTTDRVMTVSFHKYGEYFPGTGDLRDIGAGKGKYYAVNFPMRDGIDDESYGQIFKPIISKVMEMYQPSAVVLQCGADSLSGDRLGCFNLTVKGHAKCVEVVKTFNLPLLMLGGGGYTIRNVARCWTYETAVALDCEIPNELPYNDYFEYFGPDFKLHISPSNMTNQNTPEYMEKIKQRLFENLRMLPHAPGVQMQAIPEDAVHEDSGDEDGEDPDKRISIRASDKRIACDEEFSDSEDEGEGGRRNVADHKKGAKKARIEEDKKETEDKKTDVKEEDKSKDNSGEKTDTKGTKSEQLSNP
T2 sequence (Q13547 whole entry): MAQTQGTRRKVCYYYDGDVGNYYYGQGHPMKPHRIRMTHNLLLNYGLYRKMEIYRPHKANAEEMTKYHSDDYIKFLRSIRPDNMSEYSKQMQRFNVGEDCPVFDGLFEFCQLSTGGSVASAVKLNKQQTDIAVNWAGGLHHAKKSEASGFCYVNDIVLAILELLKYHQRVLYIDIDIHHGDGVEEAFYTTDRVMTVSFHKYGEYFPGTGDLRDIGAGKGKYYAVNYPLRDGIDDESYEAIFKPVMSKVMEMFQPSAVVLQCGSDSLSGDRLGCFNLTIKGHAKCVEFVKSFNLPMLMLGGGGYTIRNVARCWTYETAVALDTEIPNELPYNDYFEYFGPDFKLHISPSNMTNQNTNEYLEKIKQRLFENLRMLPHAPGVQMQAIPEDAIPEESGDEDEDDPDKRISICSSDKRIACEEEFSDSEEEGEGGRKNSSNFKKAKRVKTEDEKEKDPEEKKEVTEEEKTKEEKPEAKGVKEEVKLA

Structure (SMILES)	HDAC Inhibition HDAC2, percent (human HDAC2; recombinant HDAC2, @ 5 μM) [% @ 5 μM]	IC50 (human HDAC2) [nM]	melting point	IC50 (HDAC (HeLa cell extract); [2]) [nM]	IC50 (HDAC (HeLa cell extract); comparative tables, no unit in cell, read-out: HeLa IC50) [nM]	IC50 (human HDAC1) [nM]	IC50 (HeLa cells) [µM]	HDAC Inhibition HeLa, percent (HDAC (HeLa cell extract); @ 1 μM) [% @ 1 μM]	percent HDAC inhibition at the stated concentration (HDAC (HeLa cell extract); comparative tables, @ 1 μM) [% @ 1 μM]	IC50 [1] [µM]	IC50 (JURKAT human T-cell line) [µM]	HDAC Inhibition HeLa, percent (HDAC (HeLa cell extract); @ 500 nM) [% @ 500 nM]
O=C(/C=C/C=C/c1ccccc1)NC[C@H]1CC[C@H](C(=O)NO)CC1 [PX105552, 4-[((2E)(4E)-5-Phenylpenta-2,4-dienoylamino)methyl] cyclohexanecarboxylic acid hydroxyamide]		967	210 to 212 °C	500			10			10	7.9	
CN(C)c1ccc(/C=C/C=C/C(=O)NCCCC(=O)NO)cc1 [PX105669]		28000										
O=C(/C=C/c1cccc(NC(=O)/C=C/c2ccccc2)c1)NO [PX106513, N-Hydroxy-3-[3-(3-phenylacryloylamino)-phenyl]-acrylamide]			178 °C			438			43			43
O=C(/C=C/C#Cc1ccccc1)NCCCCCC(=O)NO [PX106525, (E)-5-Phenylpent-2-en-4-ynoic acid (5-hydroxycarbamoylpentyl)amide]			146 to 148 °C	28		37	4.7			2.8	3.6	
CC(=C\c1ccccc1)/C=C(\C)C(=O)NCCCCCC(=O)NO [PX117738, (2E)(4E)-2,4-Dimethyl-5-phenylpenta-2,4-dienoic acid (5-hydroxycarbamoyl-pentyl)amide]			120 to 122 °C	131			24			3.2	1.7	
O=C(CCCCCNC(=O)[C@H](Cc1c[nH]c2ccccc12)NC(=O)CCCc1c[nH]c2ccccc12)NO [PX117767, N-Hydroxy-6-[((2S)-3-(1H-indol-3-yl)-2-{[4-(1H-indol-3-yl)butanoyl]amino}propanoyl)-amino]hexanamide]			94 to 96 °C	90			15			6.2	3	
O=C(CCCCCNC(=O)CC/C=C/c1ccccc1)NO [PX117797, (E)-N-[6-(Hydroxyamino)-6-oxohexyl]-5-phenyl-4-pentenamide]			131 to 133 °C	688			21			21	5.6	

The next lines start with results.

HDAC Inhibition HDAC2, percent (human HDAC2; recombinant HDAC2, @ 5 μM) [% @ 5 μM]	IC50 (human HDAC2) [nM]	melting point	IC50 (HDAC (HeLa cell extract); [2]) [nM]	IC50 (HDAC (HeLa cell extract); comparative tables, no unit in cell, read-out: HeLa IC50) [nM]	IC50 (human HDAC1) [nM]	IC50 (HeLa cells) [µM]	Structure (SMILES)	HDAC Inhibition HeLa, percent (HDAC (HeLa cell extract); @ 1 μM) [% @ 1 μM]	percent HDAC inhibition at the stated concentration (HDAC (HeLa cell extract); comparative tables, @ 1 μM) [% @ 1 μM]	IC50 [1] [µM]	IC50 (JURKAT human T-cell line) [µM]	HDAC Inhibition HeLa, percent (HDAC (HeLa cell extract); @ 500 nM) [% @ 500 nM]
18							CN(C)c1ccc(C(=O)NCCC(=O)NO)c2ccccc12 [PX082530, 4-Dimethylamino-napthalene-1-carboxylic acid (2-hydroxycarbamoyl-ethyl)-amide]	13	13			
	688	102 to 104 °C					O=C(CCCCCNC(=O)c1ccccc1)NO [PX083449, N-(5-Hydroxycarbamoyl-pentyl)-benzamide]					
	480	135 to 136 °C	466	466	175	2.3	CN(C)c1ccc(C(=O)NCCCCCC(=O)NO)c2ccccc12 [PX089275, 4-Dimethylamino-napthalene-1-carboxylic acid (5-hydroxycarbamoyl-pentyl)-amide]					
	312	131 to 132 °C	165		250	6.3	COc1ccc(C(=O)NCCCCCC(=O)NO)cc1 [PX089276, N-(5-Hydroxycarbamoyl-pentyl)-4-methoxy-benzamide]					
	31000		21900			114	CC(/C=C/C(=O)NCCCC(=O)NO)=C\c1ccccc1 [PX105554]				20	
		201 °C (dec.)	69		69	5.2	O=C(CCCCCNC(=O)c1nc2ccccc2[nH]1)NO [PX105824, 1H-Benzimidazole-2-carboxylic acid (5-hydroxycarbamoylpentyl)amide]					
	38	129 to 131 °C	54		31	3.8	CC(/C=C/C(=O)NCCCCCC(=O)NO)=C\c1ccccc1 [PX105829, (2E,4E)-4-Methyl-5-phenylpenta-2,4-dienoic acid (5-hydroxycarbamoylpentyl)amide]					
	69	191 to 193 °C	33		64	9	O=C(/C=C/c1ccc2c(c1)OCO2)NCCCCCC(=O)NO [PX105831, (E)-3-Benzo[1,3]dioxol-5-yl-N-(5-hydroxycarbamoylpentyl)acrylamide]					
		55 to 56 °C	3300		4000	60	O=C(CCCCCNC(=O)C(c1ccccc1)c1ccccc1)NO [PX106489, 6-Diphenylacetylamino-hexanoic acid hydroxyamide]					
